Data taken from patent publication US8188059B2, “Compounds and methods for modulating expression of GCGR” (Isis Pharmaceuticals, Inc., priority 2006, dated 2012).
Strand notation (5' to 3'): a small letter for the sugar, then the base; units joined by * are phosphorothioate-linked, units joined directly phosphodiester-linked; [ ] holds rarer units or linkages, { } end groups; capitals alone tell only the bases. e = 2'-O-(2-methoxyethyl) (MOE); [5mC] = 5-methylcytosine; d = 2'-deoxy (DNA)

Assays:
[1] = test system: rat SGLT2 mRNA; test: Rat SGLT2 mRNA levels in kidney, 1-10-1 and 1-10-2 MOE gapmers, Sprague-Dawley rats (Example 13, Table 63); assay type: in vivo
From the text: 1-10-1 and 1-10-2 MOE gapmer antisense compounds, provided in Table 62, were designed to target different regions of the mouse or rat SGLT2 RNA. All short antisense compounds in Table 62 are chimeric oligonucleotides (“gapmers”) either 12 or 13 nucleotides in length, composed of a central “gap” segment consisting of ten 2′-deoxynucleotides, which are flanked on the 5′ side by a one-nucleoside “wing” and on the 3′ side by a two or one-nucleotide “wing”. […] All cytidine residues are 5-methylcytidines.
The short antisense compounds were analyzed for their effect on rat SGLT2 mRNA levels. Data are ranges taken from three experiments in which Male Sprague-Dawley rats (170-200 g) were dosed twice per week for three weeks with 450, 150 or 50 nmol/kg of either a 1-10-1 or 1-10-2 MOE gapmer given by intraperitoneal injection. Rats were sacrificed 48 hours following last administration and evaluated for SGLT2 mRNA levels in kidney. Target levels were determined by RT, real-time PCR as described by other examples herein. PCR results were normalized to an internal ISIS control.

[2] = test system: mouse SGLT2 mRNA; test: Mouse SGLT2 mRNA levels in kidney, additional 1-10-1 and 2-8-2 MOE gapmers, Balb/c mice (Example 15, Table 68); assay type: in vivo
[3] = test system: rat SGLT2 mRNA; test: Rat SGLT2 mRNA levels in kidney, 1-10-1 gapmers at 250 nmol/kg, Sprague-Dawley rats (Example 14, Table 66); assay type: in vivo; conditions: 250 nmol/kg i.p. twice per week for three weeks; Sprague-Dawley rats; kidney
Protocol: The effect of the above 1-10-1gapmers (see Table 64 above) on rat SGLT2 mRNA levels. Data are taken from four experiments in which male Sprague-Dawley rats (170-200 g) were dosed twice per week for three weeks with 250 nmol/kg given by intraperitoneal injection. Rats were sacrificed 48 hours following last administration and evaluated for SGLT2 mRNA levels in kidney. Target levels were determined by RT, real-time PCR as described by other examples herein. PCR results were normalized to an internal ISIS control.

[4] = test system: mouse SGLT2 mRNA; test: Mouse SGLT2 mRNA levels in kidney, 1-10-1 MOE gapmers, Balb/c mice (Example 14, Table 65); assay type: in vivo
Protocol: The short antisense compounds were analyzed for their effect on mouse SGLT2 mRNA levels. Data was taken from three experiments in which Male 6-week old Balb/c mice were dosed twice per week for two weeks with 450, 150, or 50 nmol/kg of one of the above 1-10-1 MOE gapmers given by intraperitoneal injection. Mice were sacrificed 48 hours following last administration and evaluated for SGLT2 mRNA levels in kidney. Target levels were determined by RT, real-time PCR as described by other examples herein. PCR results were normalized to an internal ISIS control.

[5] = test system: PTP1B mRNA; test: Antisense inhibition of human PTP1B in HepG2 cells at 25 nM (Example 24, Table 85); assay type: cell-based
Protocol: Short antisense compounds targeted to a PTP1B nucleic acid were tested for their effects on PTP1B mRNA in vitro. Cultured HepG2 cells at a density of 10000 cells per well in a 96-well plate were treated with 25 nM of antisense oligonucleotide. After the treatment period, RNA was isolated from the cells and PTP1B mRNA levels were measured by quantitative real-time PCR, as described herein. PTP1B mRNA levels were adjusted according to total RNA content as measured by RIBOGREEN®. Results are presented as percent inhibition (% Ihib) of PTP1B, relative to untreated control cells.

[6] = test system: PTP1B mRNA; test: Antisense inhibition of human PTP1B in HuVEC cells at 3 nM (Example 23, Table 84); assay type: cell-based
Protocol: Short antisense compounds targeted to a PTP1B nucleic acid were tested for their effects on PTP1B mRNA in vitro. Cultured HuVEC cells at a density of 5000 cells per well in a 96-well plate were treated as described herein with 3 nM of short antisense compound. After the treatment period, RNA was isolated from the cells and PTP1B mRNA levels were measured by quantitative real-time PCR, as described herein. PTP1B mRNA levels were adjusted according to total RNA content as measured by RIBOGREEN®. Results are presented as percent inhibition of PTP1B (% Inhib), relative to untreated control cells.

[7] = test system: GCGR mRNA; test: Antisense inhibition of GCGR in HepG2 cells, 25-200 nM (Example 21, Table 79); assay type: cell-based, human; conditions: HepG2 cells, 25, 50, 100 or 200 nM
Protocol: Short antisense compounds targeted to a GCGR nucleic acid were tested for their effects on GCGR mRNA in vitro.
Cultured HepG2 cells at a density of 10000 cells per well in a 96-well plate were treated as described herein with 25, 50, 100 or 200 nM of antisense oligonucleotide. After the treatment period, RNA was isolated from the cells and GCGR mRNA levels were measured by quantitative real-time PCR, as described herein. GCGR mRNA levels were adjusted according to total RNA content as measured by RIBOGREEN®. Results are presented as percent reduction in GCGR mRNA, relative to untreated control cells.

[8] = test system: mouse SGLT2 mRNA; test: Mouse SGLT2 mRNA levels in kidney, MOE versus Methyleneoxy BNA gapmers, Balb/c mice (Example 15, Table 69); assay type: in vivo
Protocol: The effect of ISIS 379692 1-10-1 MOE gapmer and ISIS 388625 2-8-2 MOE gapmer are compared with the effect of ISIS 392170 1-10-1 Methyleneoxy BNA Gapmer and ISIS 392173 2-8-2 Methyleneoxy BNA Gapmer (see Table 69) on mouse SGLT2 mRNA levels in vivo. Data are taken from three experiments in which male 6-week old Balb/c mice were dosed twice per week for three weeks with 5, 25 and 125 nmol/kg of either the ISIS 379692 1-10-1 MOE gapmer or the ISIS 388625 2-8-2 MOE gapmer given by intraperitoneal injection. Mice were sacrificed 48 hours following last administration and evaluated for SGLT2 mRNA levels in kidney. Target levels were determined by RT, real-time PCR as described by other examples herein. PCR results were normalized to an internal ISIS control. The data are expressed as percent change (“+” indicates an increase, “−” indicates a decrease) relative to saline treated animals and are illustrated in Table 69.

[9] = test system: rat SGLT2 mRNA; test: Rat SGLT2 mRNA levels in kidney, ISIS 379692 and ISIS 388625, Sprague-Dawley rats (Example 15, Table 70); assay type: in vivo; conditions: i.p. twice per week for three weeks
Protocol: The effect of ISIS 379692 1-10-1 MOE gapmer and ISIS 388625 MOE 2-8-2 gapmer (see Table 70) on rat SGLT2 mRNA levels in vivo. […] Rats were sacrificed 48 hours following last administration and evaluated for SGLT2 levels in kidney. Target levels were determined by RT, real-time PCR as described by other examples herein. PCR results were normalized to an internal ISIS control.

[10] = 50 nmol/kg i.p. twice per week for three weeks
[11] = 150 nmol/kg i.p. twice per week for three weeks
[12] = 450 nmol/kg i.p. twice per week for three weeks
[13] = 0.02 umol/kg i.p. twice per week for three weeks
[14] = 0.1 umol/kg i.p. twice per week for three weeks
[15] = 0.5 umol/kg i.p. twice per week for three weeks
[16] = 50 nmol/kg i.p. twice per week for two weeks
[17] = 150 nmol/kg i.p. twice per week for two weeks
[18] = 450 nmol/kg i.p. twice per week for two weeks

ISIS 379699: SGLT2; GGCATGAGCTTC 1-10-1 MOE (antisense eG*dG*d[5mC]*dA*dT*dG*dA*dG*d[5mC]*dT*dT*e[5mC])
% change in SGLT2 expression relative to saline [1, 10]: −60%
% change in SGLT2 expression relative to saline [1, 11]: −75%
% change in SGLT2 expression relative to saline [1, 12]: −83%
% change in SGLT2 expression relative to saline [2, 13]: −30%
% change in SGLT2 expression relative to saline [2, 14]: −60%
% change in SGLT2 expression relative to saline [2, 15]: −75%
% change in SGLT2 expression relative to saline [3]: −75%
% change in SGLT2 expression relative to saline [4, 16]: −42.5%
% change in SGLT2 expression relative to saline [4, 17]: −62.5%
% change in SGLT2 expression relative to saline [4, 18]: −80%

404140 (antisense eG*e[5mC]*dA*d[5mC]*dA*d[5mC]*dA*dG*d[5mC]*dT*dG*dA*eG*eG) [compound 404140]
% Inhib (PTP1B mRNA) [5]: 93%
% Inhib (PTP1B mRNA) [6]: 73%

ISIS 327161: GCGR; 3-10-3 MOE gapmer (antisense eA*eG*e[5mC]*dT*dG*d[5mC]*dT*dG*dT*dA*d[5mC]*eA*eT*e[5mC])
GCGR mRNA [7]: reduced GCGR mRNA in a dose-dependent manner

ISIS 379692: SGLT2; 1-10-1 MOE gapmer (antisense eT*dG*dT*dT*d[5mC]*d[5mC]*dA*dG*d[5mC]*d[5mC]*d[5mC]*eA)
SGLT2 mRNA, percent change relative to saline treated animals ([8]; 5 nmol/kg i.p. twice per week for three weeks): −7 percent change
SGLT2 mRNA, percent change relative to saline treated animals ([8]; 25 nmol/kg i.p. twice per week for three weeks): −46 percent change
SGLT2 mRNA, percent change relative to saline treated animals ([8]; 125 nmol/kg i.p. twice per week for three weeks): −58 percent change
% change in SGLT2 expression relative to saline [1, 10]: −80%
% change in SGLT2 expression relative to saline [1, 11]: −85%
% change in SGLT2 expression relative to saline [1, 12]: −90%
% change in SGLT2 expression relative to saline [2, 13]: −55%
% change in SGLT2 expression relative to saline [2, 14]: −75%
% change in SGLT2 expression relative to saline [2, 15]: −85%
% change in SGLT2 expression relative to saline [3]: −85%
% change in SGLT2 expression relative to saline [4, 16]: −52.5%
% change in SGLT2 expression relative to saline [4, 17]: −70%
% change in SGLT2 expression relative to saline [4, 18]: −80%
% change in SGLT2 expression relative to saline ([9]; dose 3.125 umol/kg (head)): +30%
% change in SGLT2 expression relative to saline ([9]; dose 12.5 umol/kg (head)): −15%
% change in SGLT2 expression relative to saline ([9]; dose 50 umol/kg (head)): −65%
% change in SGLT2 expression relative to saline ([9]; dose 200 umol/kg (head)): −80%

404137 (antisense e[5mC]*eA*dG*dT*dG*dT*dG*d[5mC]*dA*d[5mC]*dA*d[5mC]*eA*eG) [compound 404137]
% Inhib (PTP1B mRNA) [5]: 71%
% Inhib (PTP1B mRNA) [6]: 76%
